Assays:
Assay in all cases: relative viability (nuclei count vs DMSO), 5 days (fraction); higher = more cells survive
Sulindac + Decitabine = compound: CC1=C(CC(=O)O)c2cc(F)ccc2/C1=C\c1ccc([S+](C)[O-])cc1 [Sulindac] + Nc1ncn([C@H]2C[C@H](O)[C@@H](CO)O2)c(=O)n1 [Decitabine] (partner 2 µM)
Summary of the method: (§1)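 After 5 days of treatment, lung cancer cells in 1536-well plates were fixed and stained in a single step (final 0.05% Triton X-100, 1% formaldehyde, 1 ug/ml Hoechst) and their nuclei counted on 4× images. Treatment had been applied by pin tool the day after seeding as one drug alone or as a fixed anchor-drug dose with five library-drug doses (not always all listed) in √10 steps. Relative viability is the nuclei count of treated wells divided by that of vehicle wells, and values are medians of duplicate plates.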

[1] = compound: CN[C@@H]1C[C@H]2O[C@@](C)([C@@H]1OC)n1c3ccccc3c3c4c(c5c6ccccc6n2c5c31)C(=O)NC4 [Staurosporine] + COc1cc2c(Oc3ccc(NC(=O)C4(C(=O)Nc5ccc(F)cc5)CC4)cc3F)ccnc2cc1OCCCN1CCOCC1 [Foretinib] (partner 0.25 µM)
Summary of the method: as §1

[2] = compound: CN[C@@H]1C[C@H]2O[C@@](C)([C@@H]1OC)n1c3ccccc3c3c4c(c5c6ccccc6n2c5c31)C(=O)NC4 [Staurosporine] + CC(C)C[C@H](NC(=O)[C@H](Cc1ccccc1)NC(=O)c1cnccn1)B(O)O [Bortezomib] (partner 0.002 µM)
Summary of the method: as §1

Cell Line	relative viability (Sulindac + Decitabine; first compound 0.08 µM)	relative viability (Sulindac + Decitabine; first compound 0.253 µM)	relative viability (Sulindac + Decitabine; first compound 0.8 µM)	relative viability (Sulindac + Decitabine; first compound 2.53 µM)	relative viability (Sulindac + Decitabine; first compound 8 µM)	relative viability ([1]; first compound 0.005 µM)	relative viability ([1]; first compound 0.05 µM)	relative viability ([1]; first compound 0.1581 µM)	relative viability ([1]; first compound 0.5 µM)	relative viability ([2]; first compound 0.005 µM)	relative viability ([2]; first compound 0.01581 µM)	relative viability ([2]; first compound 0.05 µM)	relative viability ([2]; first compound 0.1581 µM)	relative viability ([2]; first compound 0.5 µM)	relative viability ([1]; first compound 0.01581 µM)
NCI-H522	0.643	0.718	0.652	0.667	0.687										
NCI-H1944	0.489	0.44	0.412	0.426	0.449	0.756	0.431	0.39	0.251						
PC-14	0.25	0.274	0.223	0.215	0.257	0.929	0.38	0.102	0.0787	0.838	0.428	0.293	0.0723	0.065	0.718
NCI-H1650	0.4	0.495	0.421	0.378	0.473	0.927	0.201	0.216	0.133	0.205	0.179	0.197	0.179	0.194	0.586
HCC-827	0.342	0.31	0.328	0.332	0.291	1.06	0.645	0.381	0.395	0.942	0.874	0.915	0.564	0.582	0.589
HCC-366	0.388	0.317		0.334	0.412	1.07	0.799	0.105	0.303	1.13		0.208	0.0142	0.0141	
HARA	0.704	0.492	0.398	0.46	0.521	0.77	0.327	0.184	0.258	0.996	0.351	0.233	0.115	0.179	
NCI-H441	0.255	0.232	0.252	0.245	0.264	0.822	0.354	0.215	0.194	0.391	0.209	0.212	0.133	0.126	0.503
LXF-289	0.404	0.416	0.372	0.381	0.452	1.01	0.268	0.0989	0.0792	0.822		0.257	0.122	0.0797	0.164
SK-LU-1	0.691	0.642	0.53	0.647	0.673	0.267		0.119	0.132	0.906		0.255	0.2	0.179	0.192
CAL-12T						0.523	0.186	0.168	0.121	0.343	0.227	0.233	0.244	0.186	0.319
COR-L 105	0.648	0.698	0.621	0.538	0.769	0.439	0.322	0.341	0.231	0.351	0.257	0.203	0.22	0.231	0.389
NCI-H2405	0.803	0.723	0.713	0.749	0.823	0.675		0.105	0.0788	0.314	0.165	0.188	0.163	0.134	0.302
NCI-H2228						0.889	0.317	0.11	0.0985	0.782	0.421	0.419	0.227	0.118	0.537
PC-3 [JPC-3]	0.777	0.791	0.838	0.77	0.855	1.07	0.525	0.359	0.4	0.866		0.511	0.275	0.316	0.483
SW 1573	0.688	0.538	0.443	0.368	0.641	0.852	0.203	0.176	0.104	0.712	0.444	0.192	0.101	0.0911	0.943
A549	0.262	0.247		0.29	0.232	0.675	0.297	0.0276	0.0246						0.268
NCI-H1648	0.641	0.558		0.462	0.452										
NCI-H1623						0.967	0.925	0.731	0.341						0.643
NCI-H1666	0.679	0.73	0.668	0.696	0.713	0.668	0.545	0.391	0.359	0.638	0.468	0.493	0.29	0.189	0.513
NCI-H2087	0.186	0.324	0.254	0.246	0.323	0.863	0.252	0.112	0.0962	0.761	0.548	0.39	0.175	0.113	0.561
NCI-H596	0.894	0.982		1.2	1.1	1.32	0.587	0.297	0.305	1.38	0.549	1	0.282	0.393	0.839
Calu-6						0.75	0.254	0.0642	0.0391	0.844	0.531	0.313	0.14	0.0926	0.456
LCLC-103H	0.748	0.787	0.738	0.661	0.729	0.668	0.171	0.161	0.142	1.03	0.613	0.364	0.274	0.251	0.178
HCC-15	0.708	0.625	0.548	0.543	0.661	0.975	0.483	0.13	0.107	1.05		0.842	0.376	0.251	
H3255	0.577	0.662	0.503	0.566	0.615	0.884	0.292	0.211	0.183	0.357	0.228	0.337	0.162	0.136	0.357

— the supplement of paper PMC10307832
